In ChEMBL document CHEMBL1201862, “PubChem BioAssay data set” (2004):
The source made the active and inactive calls.

Columns and labels:
[1] = molecular target: Intestinal-type alkaline phosphatase (Homo sapiens, UniProt P09923); assay: human intestinal alkaline phosphatase activators, dose response, biochemical, luminescence, uHTS hits (AID 463120); format: functional
BJ [2] = assay: cytotoxicity toward BJ-TERT-LT-ST fibroblasts, dose response, cell-based, RAS-independent, luminescence (AID 1935); format: functional; details: Homo sapiens;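 also: BJ fibroblasts immortalized with TERT plus LT and ST oncogenes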
cells = format: functional
BJ [3] = assay: cytotoxicity toward BJ-TERT fibroblasts, dose response, cell-based, RAS-independent, luminescence (AID 1933); format: functional; details: Homo sapiens
BJ [4] = assay: cells; format: functional, cell-based; details: Homo sapiens
[5] = cytotoxicity toward DRD oncogenic fibroblasts, dose response, cell-based, non-viral oncogenic, luminescence (AID 1934); format: functional; details: Homo sapiens
[6] = THP-1 cell cytotoxicity, dose response, cytotoxicity control for non-replicating M. tuberculosis project (AID 489025); format: functional
[7] = Vero E6 cell cytotoxicity, dose response, cytotoxicity control for non-replicating M. tuberculosis project, secondary assay (AID 492998); format: functional, VeroE6; details: Vero C1008
[8] = molecular target: Tyrosine-protein phosphatase non-receptor type 5 (Homo sapiens, UniProt P54829); assay: STEP phosphatase inhibitors, confirmation, biochemical, fluorescence intensity, uHTS hits (AID 602372); format: functional; details: read-out: IC50_Mean
[9] = molecular target: Tyrosine-protein phosphatase non-receptor type 11 (Homo sapiens, UniProt Q06124); assay: SHP2 phosphatase inhibition, dose response, selectivity assay for STEP inhibitor project, biochemical (AID 602367); format: functional; details: read-out: IC50_Mean
[10] = molecular target: T1, G-protein coupled receptor 55 (Homo sapiens, UniProt Q9Y2T6); assay: GPR55 antagonists blocking LPI-driven arrestin recruitment, primary screen, imaging, U2OS, beta-arrestin-GFP, LPI agonist (AID 2013); format: functional;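 also: antagonist potency measured as reduced agonist-driven arrestin aggregation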
Cannabinoid receptor 1 [11] = molecular target: T2, Cannabinoid receptor 1 (Homo sapiens, UniProt P21554); assay: SAR analysis of antagonists of the Cannabinoid Receptor 1 using an Image-Based Assay - Set 4. [Related pubchem assays (depositor defined):AID2013, AID2026]; format: functional
Cannabinoid receptor 1 [12] = molecular target: T2, Cannabinoid receptor 1; assay: SAR analysis of antagonists of the Cannabinoid Receptor 1 using an Image-Based Assay - Set 2. [Related pubchem assays (depositor defined):AID2013, AID2026]; format: functional
[13] = molecular target: T3, G-protein coupled receptor 35 (Homo sapiens, UniProt Q9HC97); assay: SAR analysis of Agonists of the GPR35 Receptor using an Image-Based Assay - Set 2. [Related pubchem assays (depositor defined):AID2013, AID2026]; format: functional
[14] = molecular target: T1, G-protein coupled receptor 55; assay: GPR55 antagonist potency of analogs, SAR follow-up, imaging, U2OS, beta-arrestin-GFP, LPI agonist, set 2 (AID 2820); format: functional
Cannabinoid receptor 2 [15] = molecular target: T4, Cannabinoid receptor 2 (Homo sapiens, UniProt P34972); assay: SAR analysis of antagonists of the Cannabinoid Receptor 2 using an Image-Based Assay. [Related pubchem assays (depositor defined):AID2013, AID2026]; format: functional
Cannabinoid receptor 2 [16] = molecular target: T4, Cannabinoid receptor 2; assay: SAR analysis of agonists of the Cannabinoid Receptor 2 using an Image-Based Assay - Set 3. [Related pubchem assays (depositor defined):AID2013, AID2026]; format: functional
[17] = molecular target: Induced myeloid leukemia cell differentiation protein Mcl-1 (Homo sapiens, UniProt Q07820); format: functional
[18] = molecular target: T1, G-protein coupled receptor 55; assay: SAR Analysis of Selective Antagonists of GPR55 using an Image-Based Assay - Set 4. [Related pubchem assays (depositor defined):AID2013, AID2026]; format: functional
Cannabinoid receptor 2 [19] = molecular target: T4, Cannabinoid receptor 2; assay: SAR analysis of antagonists of the Cannabinoid Receptor 2 using an Image-Based Assay - Set 3. [Related pubchem assays (depositor defined):AID2013, AID2026]; format: functional
Cannabinoid receptor 2 [20] = molecular target: T4, Cannabinoid receptor 2; assay: SAR analysis of agonists of the Cannabinoid Receptor 2 using an Image-Based Assay. [Related pubchem assays (depositor defined):AID2013, AID2026]; format: functional
[21] = molecular target: Dual specificity protein phosphatase 3 (Homo sapiens, UniProt P51452); assay: VHR phosphatase inhibition, dose response, selectivity assay for STEP inhibitor project, biochemical (AID 602374); format: functional; details: read-out: IC50_Mean
[22] = molecular target: T3, G-protein coupled receptor 35; assay: SAR analysis of Antagonists of the GPR35 Receptor using an Image-Based Assay - Set 3. [Related pubchem assays (depositor defined):AID2013, AID2026]; format: functional
Cannabinoid receptor 1 [23] = molecular target: T2, Cannabinoid receptor 1; assay: SAR analysis of agonists of the Cannabinoid Receptor 1 using an Image-Based Assay - Set 2. [Related pubchem assays (depositor defined):AID2013, AID2026]; format: functional
Caspase-6 = molecular target: T5, Caspase-6 (Homo sapiens, UniProt P55212); assay: human caspase-6 inhibitors, dose response, biochemical, VEID-R110 fluorescence, cherry-pick (AID 720632)
T5 sequence (P55212 whole entry): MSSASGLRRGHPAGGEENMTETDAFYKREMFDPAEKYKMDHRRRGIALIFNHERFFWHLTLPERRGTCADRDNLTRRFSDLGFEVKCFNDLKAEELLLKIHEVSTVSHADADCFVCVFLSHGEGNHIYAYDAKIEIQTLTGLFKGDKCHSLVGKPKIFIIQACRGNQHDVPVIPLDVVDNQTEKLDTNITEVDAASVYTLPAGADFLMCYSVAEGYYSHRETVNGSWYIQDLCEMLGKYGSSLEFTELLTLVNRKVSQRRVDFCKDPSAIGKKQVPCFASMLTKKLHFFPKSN

T1 sequence (Q9Y2T6 whole entry): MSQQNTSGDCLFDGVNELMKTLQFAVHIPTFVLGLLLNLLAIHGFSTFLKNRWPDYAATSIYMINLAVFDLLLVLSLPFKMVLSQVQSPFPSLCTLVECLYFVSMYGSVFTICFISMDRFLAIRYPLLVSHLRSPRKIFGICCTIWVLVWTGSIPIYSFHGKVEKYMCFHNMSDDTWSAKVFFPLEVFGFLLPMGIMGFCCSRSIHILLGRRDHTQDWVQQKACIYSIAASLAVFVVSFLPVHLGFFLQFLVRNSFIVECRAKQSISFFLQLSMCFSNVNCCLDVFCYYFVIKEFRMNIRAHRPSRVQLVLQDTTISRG
T2 sequence (P21554 whole entry): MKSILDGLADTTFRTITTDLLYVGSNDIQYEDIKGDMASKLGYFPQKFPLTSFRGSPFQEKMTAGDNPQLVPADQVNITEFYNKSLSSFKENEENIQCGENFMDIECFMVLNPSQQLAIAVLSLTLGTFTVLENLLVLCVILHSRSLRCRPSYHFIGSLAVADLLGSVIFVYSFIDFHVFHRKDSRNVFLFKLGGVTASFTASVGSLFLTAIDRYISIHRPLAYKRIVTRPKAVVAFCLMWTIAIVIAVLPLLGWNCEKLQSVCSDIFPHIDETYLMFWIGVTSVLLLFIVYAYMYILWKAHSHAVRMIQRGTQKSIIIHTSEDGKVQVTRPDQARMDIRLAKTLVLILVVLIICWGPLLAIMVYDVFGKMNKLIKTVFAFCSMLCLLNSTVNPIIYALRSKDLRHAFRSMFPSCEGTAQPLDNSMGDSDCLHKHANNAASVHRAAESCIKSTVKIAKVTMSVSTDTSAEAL
T4 sequence (P34972 whole entry): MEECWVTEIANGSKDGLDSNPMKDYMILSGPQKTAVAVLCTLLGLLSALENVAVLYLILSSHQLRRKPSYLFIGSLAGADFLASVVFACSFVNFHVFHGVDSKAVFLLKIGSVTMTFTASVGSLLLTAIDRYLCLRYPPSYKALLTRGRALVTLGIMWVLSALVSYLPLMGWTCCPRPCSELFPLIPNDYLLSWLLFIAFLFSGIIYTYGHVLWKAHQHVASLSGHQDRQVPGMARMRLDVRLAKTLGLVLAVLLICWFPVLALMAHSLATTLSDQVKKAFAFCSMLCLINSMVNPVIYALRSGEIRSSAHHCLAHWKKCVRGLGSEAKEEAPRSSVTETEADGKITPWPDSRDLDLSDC
T3 sequence (Q9HC97 whole entry): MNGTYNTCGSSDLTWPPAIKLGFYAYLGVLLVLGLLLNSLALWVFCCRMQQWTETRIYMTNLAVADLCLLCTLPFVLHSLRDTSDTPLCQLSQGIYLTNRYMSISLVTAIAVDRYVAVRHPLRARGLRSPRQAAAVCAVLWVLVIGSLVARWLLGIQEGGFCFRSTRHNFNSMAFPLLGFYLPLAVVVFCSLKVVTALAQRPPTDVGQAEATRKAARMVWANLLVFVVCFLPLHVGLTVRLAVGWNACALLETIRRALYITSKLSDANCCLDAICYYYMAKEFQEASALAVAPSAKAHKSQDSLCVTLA
Sequence of Induced myeloid leukemia cell differentiation protein Mcl-1 (Q07820 whole entry): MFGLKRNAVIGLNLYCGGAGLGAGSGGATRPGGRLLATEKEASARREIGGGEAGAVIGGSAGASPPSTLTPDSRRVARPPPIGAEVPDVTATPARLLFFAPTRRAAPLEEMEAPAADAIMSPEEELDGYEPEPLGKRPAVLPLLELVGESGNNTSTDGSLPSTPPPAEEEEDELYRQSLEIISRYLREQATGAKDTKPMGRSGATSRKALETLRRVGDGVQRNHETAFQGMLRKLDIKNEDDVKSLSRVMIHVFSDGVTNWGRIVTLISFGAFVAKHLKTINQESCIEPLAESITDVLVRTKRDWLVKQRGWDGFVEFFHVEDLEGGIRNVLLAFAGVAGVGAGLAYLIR
Sequence of Intestinal-type alkaline phosphatase (P09923 whole entry): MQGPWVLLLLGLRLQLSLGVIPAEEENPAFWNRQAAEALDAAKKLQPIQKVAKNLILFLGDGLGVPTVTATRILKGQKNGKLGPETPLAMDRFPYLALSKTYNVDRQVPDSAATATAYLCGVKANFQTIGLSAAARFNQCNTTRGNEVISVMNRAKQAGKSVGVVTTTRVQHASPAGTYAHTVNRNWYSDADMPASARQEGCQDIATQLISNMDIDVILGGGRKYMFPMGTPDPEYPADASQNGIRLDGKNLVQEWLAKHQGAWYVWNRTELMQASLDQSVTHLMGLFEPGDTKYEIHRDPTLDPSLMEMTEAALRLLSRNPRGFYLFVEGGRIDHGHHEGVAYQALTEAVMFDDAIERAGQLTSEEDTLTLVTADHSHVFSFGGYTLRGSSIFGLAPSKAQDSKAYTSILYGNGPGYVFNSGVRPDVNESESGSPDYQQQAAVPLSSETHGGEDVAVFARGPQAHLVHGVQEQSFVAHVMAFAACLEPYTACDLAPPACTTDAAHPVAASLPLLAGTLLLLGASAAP
Sequence of Tyrosine-protein phosphatase non-receptor type 5 (P54829 whole entry): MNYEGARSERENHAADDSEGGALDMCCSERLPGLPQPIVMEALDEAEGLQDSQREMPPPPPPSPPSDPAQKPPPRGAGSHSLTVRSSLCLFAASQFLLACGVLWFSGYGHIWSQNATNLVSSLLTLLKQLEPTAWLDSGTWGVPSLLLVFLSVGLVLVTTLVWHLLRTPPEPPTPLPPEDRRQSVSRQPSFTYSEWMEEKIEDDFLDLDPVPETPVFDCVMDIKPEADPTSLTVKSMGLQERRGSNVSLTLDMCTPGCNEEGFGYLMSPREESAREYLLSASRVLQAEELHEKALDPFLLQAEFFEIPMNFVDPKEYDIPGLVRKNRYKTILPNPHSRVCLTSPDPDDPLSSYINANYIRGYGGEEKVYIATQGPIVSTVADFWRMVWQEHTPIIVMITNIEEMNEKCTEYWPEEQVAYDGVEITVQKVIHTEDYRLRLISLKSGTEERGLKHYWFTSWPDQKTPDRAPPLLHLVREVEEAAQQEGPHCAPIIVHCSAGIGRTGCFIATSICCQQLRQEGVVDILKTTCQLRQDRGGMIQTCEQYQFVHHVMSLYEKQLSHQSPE
Sequence of Dual specificity protein phosphatase 3 (P51452 whole entry): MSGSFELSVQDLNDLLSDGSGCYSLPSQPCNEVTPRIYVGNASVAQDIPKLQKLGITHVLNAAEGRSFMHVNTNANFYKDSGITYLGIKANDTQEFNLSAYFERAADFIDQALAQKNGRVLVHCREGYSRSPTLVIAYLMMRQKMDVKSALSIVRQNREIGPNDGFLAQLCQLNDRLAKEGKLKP
Sequence of Tyrosine-protein phosphatase non-receptor type 11 (Q06124 whole entry): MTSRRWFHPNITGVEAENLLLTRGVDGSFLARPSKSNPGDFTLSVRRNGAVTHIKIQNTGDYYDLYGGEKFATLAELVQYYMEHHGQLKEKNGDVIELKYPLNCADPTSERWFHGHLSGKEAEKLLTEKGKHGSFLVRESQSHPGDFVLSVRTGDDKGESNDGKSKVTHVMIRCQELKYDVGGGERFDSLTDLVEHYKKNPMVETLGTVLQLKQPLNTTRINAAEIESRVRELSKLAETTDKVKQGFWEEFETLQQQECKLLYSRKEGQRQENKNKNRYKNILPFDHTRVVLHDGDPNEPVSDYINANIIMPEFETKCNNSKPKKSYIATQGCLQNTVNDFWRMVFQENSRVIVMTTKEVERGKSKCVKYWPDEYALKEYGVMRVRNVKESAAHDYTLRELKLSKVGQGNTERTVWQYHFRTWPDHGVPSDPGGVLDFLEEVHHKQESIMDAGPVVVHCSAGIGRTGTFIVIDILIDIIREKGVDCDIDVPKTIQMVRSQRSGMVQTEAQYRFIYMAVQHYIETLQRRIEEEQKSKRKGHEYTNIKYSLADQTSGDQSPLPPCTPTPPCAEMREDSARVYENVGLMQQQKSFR

O=C(N/N=C/c1ccc2cccnc2c1)c1nc(O)c2ccccc2n1
EC50 [1]: 7.78 µM (active)

COC(=O)c1ccc(C(=O)NC2CCCc3c2cnn3-c2cc(F)cc(F)c2)nc1 (stereo not given)
EC50 (BJ [2]): 17.3 µM (active)
IC50 (cells): 2.22 µM (active)
EC50 (BJ [3]): 17.1 µM (active)
EC50 (BJ [4]): 24.6 µM (active)
EC50 [5]: 40 µM (active)
CC50 [6]: 10.7 µM (active)
CC50 [7]: 10.8 µM (active)

Cc1cc(C)c2nc(-c3ccccn3)cc(C(=O)Nc3ccc(S(=O)(=O)Nc4onc(C)c4C)cc3)c2c1
IC50 [8]: 28.3 µM (inactive)
IC50 [9]: 2.95 µM (active)
IC50 [10]: < 0.5 µM (active)
IC50 (Cannabinoid receptor 1 [11]): 24.6 µM (inactive)
IC50 (Cannabinoid receptor 1 [12]): > 32 µM (inactive)
EC50 [13]: > 32 µM (inactive)
IC50 [14]: 0.136 µM (active)
IC50 (Cannabinoid receptor 2 [15]): > 32 µM (inactive)
EC50 (Cannabinoid receptor 2 [16]): > 32 µM (inactive)
IC50 [17]: 4.01 µM (active)
IC50 [18]: 0.263 µM (active)
IC50 (Cannabinoid receptor 2 [19]): > 32 µM (inactive)
EC50 (Cannabinoid receptor 2 [20]): > 32 µM (inactive)
IC50 [21]: 2.73 µM (active)
IC50 [22]: > 32 µM (inactive)
EC50 (Cannabinoid receptor 1 [23]): > 32 µM (inactive)
AC50 (Caspase-6): 14.7 µM (active)
